Here are results for six molecules from patent publication US6492124B1, “Trance activated signal transduction pathways in osteoclasts” (The Rockefeller University, priority 1999, dated 2002).

Holding throughout (assay type): cell-based, mouse
One assay deals with osteoclasts. In words: Osteoclast differentiation with TRANCE plus CSF-1 (TRAP solution assay). The note with it: TRANCE 100 ng/ml plus CSF-1 50 ng/ml; LY294002 200 nM and 800 nM. As to the method: FIG. 3. c-Src is required for TRANCE-induced PKB activation and osteoclast survival. (A) c-Src was immunoprecipitated from osteoclasts, dendritic cells and macrophages stimulated with TRANCE (1 μg/ml) for the indicated times using an anti-c-Src-specific monoclonal antibody (327). PTK activity of the c-Src immunprecipitates were measured in vitro using SAM68, a PTK specific substrate. The degree of SAM68 phosphorylation was determined by Western blot analysis using an anti-phospho-tyrosine antibody (4G10) and densitometry. Note that c-Src kinase activity was not detectable in TRANCE-treated macrophages most likely due to low levels of c-Src in these cells (Lacey, et al., supra, 1998). (B) Osteoclasts derived from wild type and c-Src deficient mice were stimulated with TRANCE (5 μg/ml) for 10 min and the levels of phosphorylated PKB (PKB^P), total PKB, and total IκBα were determined as in FIG. 1. (C) Osteoclasts from wild-type (open bars) and c-Src deficient (solid bars) mice were washed and then cultured for an additional 24 hours in media alone (Medium) or in media with TRANCE (5 μg/ml) or CSF-1 (10 ng/ml). TRAP solution assays were performed and percent survival calculated. The experiment was performed in triplicate and the mean values with positive standard deviations are shown. […] Osteoclasts were detected by TRAP solution assays. […]

Assay [1] has as its system PKB. In words: PKB activation in osteoclasts (phospho-PKB Western blot). The note with it: for TRANCE-induced PKB activation (phosphorylated form of PKB): osteoclasts pretreated 90 min with inhibitor 10 μM, then TRANCE 1 μg/ml. How it is done: (§1) FIG. 1. […] (A) Mature bone marrow-derived osteoclasts were stimulated for the indicated times with recombinant hCD8-TRANCE (TRANCE; 1 μg/ml). Levels of phosphorylated forms of p44/p42 ERK (p44 ERK^P and p42 ERK^P), IκBα (IκB-α^P) and PKB (PKB^P) in whole cell extracts were determined using phospho-peptide-specific antibodies as indicated in the figure. […] (B) as in (A) except the use of mature bone marrow-derived dendritic cells instead of osteoclasts.
(§2) FIG. 2. […] (A) Osteoclasts were serum starved and then pretreated for 90 min with LY294002 (10 μM), Herbimycin A (Herb. A; 10 μM), and PP1 (10 μM) inhibitors which are specific for PI3-kinase, PTKs, and Src-family kinases, respectively, were stimulated for indicated times with TRANCE (1 μg/ml). Levels of phosphorylated p44/p42 ERK, PKB, and IκB-α were determined as described in FIG. 1. Cells pretreated with vehicle (DMSO) were used as a negative control. (B) as in (A) except the use of mature bone marrow-derived dendritic cells.
(§3) Primary cells and cell lines. […] In brief, bone marrow cells from tibiae and femur of 4-6 week old mice (C57BL/6, Jackson Laboratories) were cultured overnight in media (α-MEM, 10% FCS) in the presence of CSF-1 (5 ng/ml). […] For experiments described in this study, only adherent cells were used after extensive washing. […] After allowing them adhere for 2 hours to a tissue culture dish, contaminating floater cells were washed away and mature dendritic cells were obtained by overnight culture.
Cell stimulation, cell transfection and in vitro assays. In vitro differentiated mature dendritic cells, macrophages and osteoclasts were washed to remove exogenous growth factors, cultured in media with low serum (0.5% FCS, 6 hours), then stimulated by adding various cytokines in the presence or absence of inhibitors for various times as indicated. After stimulation, the cells were washed in ice-cold PBS, and subjected to Western blot analysis or immunoprecipitation as described below.
All cells were harvested and lysed in extraction buffer (20 mM HEPES NaOH (pH 7.4), 150 mM NaCl, 1% Triton X-100, 10% glycerol, 10 mM EDTA, 1 mM Na3VO4, 1 mM phenylmethylsulfonylfluoride, 1 μg/ml leupeptin, and 0.1 U of aprotinin per ml) and cleared by centrifugation to obtain whole cell extracts. Protein assays were performed to ensure equal amounts of lysates were used in each sample.
A general note: In western blotting, separated proteins are transferred to a membrane and probed.

Assay [2] relates to PKB. In words: PKB activation in dendritic cells (phospho-PKB Western blot). As to the method:
FIG. 1. TRANCE activates p44/42 ERK, NF-κB and PKB in osteoclasts and dendritic cells. (A) Mature bone marrow-derived osteoclasts were stimulated for the indicated times with recombinant hCD8-TRANCE (TRANCE; 1 μg/ml). Levels of phosphorylated forms of p44/p42 ERK (p44 ERK^P and p42 ERK^P), IκBα (IκB-α^P) and PKB (PKB^P) in whole cell extracts were determined using phospho-peptide-specific antibodies as indicated in the figure. The membranes were stripped and incubated with antibodies against the p44/p42 ERK, IκB-α, and PKB as indicated to confirm that similar amounts of whole cell extracts were analyzed. Note the decrease of IκB-α after 10 min of treatment due to its degradation. (B) as in (A) except the use of mature bone marrow-derived dendritic cells instead of osteoclasts.
FIG. 2. TRANCE-induced PKB activation in osteoclasts and dendritic cells is blocked by inhibitors of PI3-kinase, tyrosine kinases and Src family kinases. (A) Osteoclasts were serum starved and then pretreated for 90 min with LY294002 (10 μM), Herbimycin A (Herb. A; 10 μM), and PP1 (10 μM) inhibitors which are specific for PI3-kinase, PTKs, and Src-family kinases, respectively, were stimulated for indicated times with TRANCE (1 μg/ml). Levels of phosphorylated p44/p42 ERK, PKB, and IκB-α were determined as described in FIG. 1. Cells pretreated with vehicle (DMSO) were used as a negative control. (B) as in (A) except the use of mature bone marrow-derived dendritic cells.
FIG. 6. Cytokine receptors that engage TRAF6 activate PKB through Src-family kinases. (A) Dendritic cells were treated with TNF (10 ng/ml), TRANCE (5 μg/ml), LPS (50 μg/ml), or IL-1α (20 ng/ml) for the indicated times (min). The activation of PKB was determined in whole cell extracts using a phospho-PKB-specific antibody as described in FIG. 1. (B) Dendritic cells were pretreated with vehicle (DMSO) or the Src-family kinase inhibitor, PP1 (10 μM) for 90 minutes followed by a 15 minute treatment with TRANCE (5 μg/ml), LPS (50 μg/ml), or IL-1α (20 ng/ml) or no treatment at all (−). The activation of PKB was determined as described in FIG. 1.
Primary cells and cell lines. Osteoclasts and macrophages were generated from bone marrow precursors as described (Wani, et al., Endocrinology, 140:[…], 1999). In brief, bone marrow cells from tibiae and femur of 4-6 week old mice (C57BL/6, Jackson Laboratories) were cultured overnight in media (α-MEM, 10% FCS) in the presence of CSF-1 (5 ng/ml). After 24 hours, non-adherent cells were harvested, washed, and further cultured in media with CSF-1 (50 ng/ml) plus TRANCE (10 ng/ml) to develop osteoclasts, or with CSF-1 alone to develop macrophages. Using these conditions, after 4 days of culture, greater than 95 percent of the adherent cells were osteoclasts or macrophages. For experiments described in this study, only adherent cells were used after extensive washing. Mature dendritic cells were generated from bone marrow precursors of 4-6 week old female C57BL/6 mice (C57BL/6, Jackson Laboratories) cultured in media (RPMI1640, 5% FBS) and GM-CSF (1:30 cultured supernatant from the J558 cell line, a gift from Dr. R. M. Steinman, The Rockefeller University) for 8 days as previously described (Inaba, et al., J. Exp. Med., 176:1693-1702, 1992). To generate osteoclasts and dendritic cells from c-Src deficient mice, spleen cells, which contain hematopoietic precursors due to extramedullary hematopoeisis, were substituted for bone marrow cells as previously described (Schwartzberg, et al., Genes Dev., 11:2835-2844, 1997). Mature spleen-derived dendritic cells were isolated from spleens treated with collagenase (40 U/ml; Boehinger Mannheim) and subjected to a Nycodenz centrifugation gradient (14.5%; Nycomed) to obtain low density cells. After allowing them adhere for 2 hours to a tissue culture dish, contaminating floater cells were washed away and mature dendritic cells were obtained by overnight culture.
Cell stimulation, cell transfection and in vitro assays. […]

Another assay has as its system NF-κB. The experiment in a line: NF-κB activation measured by IκB-α phosphorylation/degradation in osteoclasts and dendritic cells (Western blot). The note with it: osteoclasts and dendritic cells (FIGS. 2A and 2B), inhibitor 10 μM, TRANCE 1 μg/ml. As to the method: as §1, §2, §3
Cell stimulation, cell transfection and in vitro assays. In vitro differentiated mature dendritic cells, macrophages and osteoclasts were washed to remove exogenous growth factors, cultured in media with low serum (0.5% FCS, 6 hours), then stimulated by adding various cytokines in the presence or absence of inhibitors for various times as indicated. After stimulation, the cells were washed in ice-cold PBS, and subjected to Western blot analysis or immunoprecipitation as described below. […]

The next assay relates to mature osteoclasts. In words: Osteoclast survival assay (TRAP solution assay). The note with it: 24 hours; TRANCE 5 μg/ml or CSF-1 10 ng/ml.

Method for mature osteoclasts: TRAP solution assays were performed and percent survival calculated. The experiment was performed in triplicate and the mean values with positive standard deviations are shown. […] (E) Mature osteoclasts were washed extensively and then cultured for an additional 24 hr in media without (−) or with TRANCE (5 μg/ml; +) in the absence or presence of increasing doses (200 nM and 800 nM) of LY294002. TRAP solution assays were performed and percent survival was as described in Experimental Procedures. The experiment was performed in triplicate and the mean values with positive standard deviations are shown.
Osteoclast survival assays. In vitro differentiated mature osteoclasts were washed 3 times in media then further cultured for 24 hr in media alone (control) or in media with TRANCE (5 μg/ml) or CSF-1 (10 ng/ml) in the presence or absence of LY294002 as indicated.
Specific cell survival (%)=(A405, 24 hr−A405. background)*100/(A405, 0 hr−A405, background)

As for `O=c1cc(N2CCOCC2)oc2c(-c3ccccc3)cccc12` [LY294002], in the assay on osteoclasts, the osteoclast differentiation entry was “did not inhibit”.

As to `COc1cccc(-c2cc(=O)c3ccccc3o2)c1N` [PD98059, reference compound], in the assay on PKB [1] (MEK inhibitor, cell type not stated (osteoclasts and dendritic cells studied), data not shown), the “TRANCE-induced PKB activation” value is listed as “failed to inhibit”.

On to `Cc1ccc(-c2nn(C(C)(C)C)c3ncnc(N)c23)cc1` [PP1, reference compound], for which the “TRANCE-induced PKB activation (phosphorylated form of PKB)” value with PKB [1] was “blocked”; in the assay with PKB [2] (dendritic cells pretreated 90 min with inhibitor 10 μM, then TRANCE 1 μg/ml) it was “inhibited”. Besides, the “activation of PKB by IL-1α” value with PKB [2] (dendritic cells pretreated with PP1 10 μM 90 minutes, then IL-1α 20 ng/ml 15 minutes) was “inhibited”. Besides, the “activation of PKB by LPS” value in the assay with PKB [2] (dendritic cells pretreated with PP1 10 μM 90 minutes, then LPS 50 μg/ml 15 minutes) is reported as “inhibited”. Moreover, the “NF-κB activation as measured by IκB-α degradation” value in the assay on NF-κB is “neither LY294002, herbimycin A, nor PP1 significantly affected”.

Turning to `CO[C@H]1[C@@H](OC)C[C@H](C)[C@@H](OC)C2=CC(=O)C=C(NC(=O)/C(C)=C/C=C\[C@H](OC)[C@@H](OC(N)=O)/C(C)=C/[C@@H]1C)C2=O` [herbimycin A, reference compound], the “TRANCE-induced PKB activation (phosphorylated form of PKB)” value in the assay with PKB [1] is “blocked”. Moreover, the “NF-κB activation as measured by IκB-α degradation” value in the assay with NF-κB is reported as “neither LY294002, herbimycin A, nor PP1 significantly affected”.

B1: CSF-1: recombinant CSF-1 purchased from R&D Systems (protein, UniProt P09603 33-554, looked up)
Macrophage colony-stimulating …: EEVSEYCSHMIGSGHLQSLQRLIDSQMETSCQITFEFVDQEQLKDPVCYLKKAFLLVQDIMEDTMRFRDNTPNAIAIVQLQELSLRLKSCFTKDYEEHDKACVRTFYETPLQLLEKVKNVFNETKNLLDKDWNIFSKNCNNSFAECSSQDVVTKPDCNCLYPKAIPSSDPASVSPHQPLAPSMAPVAGLTWEDSEGTEGSSLLPGEQPLHTVDPGSAKQRPPRSTCQSFEPPETPVVKDSTIGGSPQPRPSVGAFNPGMEDILDSAMGTNWVPEEASGEASEIPVPQGTELSPSRPGGGSMQTEPARPSNFLSASSPLPASAKGQQPADVTGTALPRVGPVRPTGQDWNHTPQKTDHPSALLRDPPEPGSPRISSLRPQGLSNPSTLSAQPQLSRSHSSGSVLPLGELEGRRSTRDRRSPAEPEGGPASEGAARPLPRFNSVPLTDTGHERQSEGSFSPQLQESVFHLLVPSVILVLLAVGGLLFYRWRRRSHQEPQRADSPLEQPEGSPLTQDDRQVELPV
Consider B1, for which, in the assay with mature osteoclasts, the “cytokine-promoted survival in c-Src−/− osteoclasts compared to wild-type” value was “not reduced”.

B2: IL-1α: recombinant IL-1 purchased from R&D Systems (protein, UniProt P01583 113-271, looked up)
Interleukin-1 alpha: SAPFSFLSNVKYNFMRIIKYEFILNDALNQSIIRANDQYLTAAALHNLDEAVKFDMGAYKSSKDDAKITVILRISKTQLYVTAQDEDQPVLLKEMPEIPKTITGSETNLLFFWETHGTKNYFTSVAHPNLFIATKQDYWVCLAGGPPSITDFQILENQA
In the case of B2, in the assay with PKB [2] (TNF 10 ng/ml, TRANCE 5 μg/ml, LPS 50 μg/ml, IL-1α 20 ng/ml, CD40L data not shown), the “PKB activation in dendritic cells stimulated with cytokine” value is recorded as “activated”.
